Experimental findings from patent US20100056524A1, “Compound” (priority 2008, published 2010) are described below.

Where a name gives a salt, the structure may show the parent alone. Read-outs that look alike come from different tables or passages of the source.

Test [1] has as its target T1, PKCa (Homo sapiens, UniProt P17252).
T1 construct: All protein kinases were of human origin and encoded full length proteins, unless indicated otherwise; made in house
The experiment in a line: PKCa protein kinase assay. The test is classed as biochemical. The settings on record: for remaining activity at 1 µM: 1 μM compound; for remaining activity at 10 µM: 10 μM compound; for residual kinase activity PKCa: 1 μm compound. The source says: (§1) All protein kinases were of human origin and encoded full length proteins, unless indicated otherwise. They were either expressed as glutathione S-transferase (GST) fusion proteins in Escherichia Coli or as hexahistidine (His6)-tagged proteins in insect Sf21 cells. GST fusion proteins were purified by affinity chromatography on glutathione-Sepharose, and His6-tagged proteins on nickel/nitriloacetate-agarose. The procedures for expressing some of the protein kinases used herein have been detailed previously.^8,9 The following sections outline the DNA vectors synthesised and the procedures used to express and purifying protein kinases that have not been reported previously.
(§2) All assays (25.5 μl) were carried out at room temperature (21° C.) and were linear with respect to time and enzyme concentration under the conditions used. Assays were performed for 30 min using Multidrop Micro reagent dispensers (Thermo Electron Corporation, Waltham, Mass. 02454, USA) in a 96-well format. The concentration of magnesium acetate in the assays was 10 mM and the [γ-33P] ATP (800 cpm/pmol) was used at 5, 20 or 50 μM as indicated, in order to be at or below the Km for ATP for each enzyme. Protein kinases assayed at 5 μM ATP were: —ERK1, ERK8, PKBα, MARK3, Aurora C. Protein kinases assayed at 20 μM ATP were: —JNK1, PDK1, CHK1, CHK2, CDK2 and Aurora B. Protein kinases assayed at 50 μM ATP were: —MNK2, IKKepsilon and TBK1.
(§3) The assays were initiated with MgATP, stopped by addition of 5 μl of 0.5 M orthophosphoric acid and spotted on to P81 filterplates using a unifilter harvester (PerkinElmer, Boston, Mass. 02118, USA). The IC50 values of inhibitors were determined after carrying out assays at 10 different concentrations of each compound.
(§4) Unless stated otherwise, enzymes were diluted in 50 mM Tris/HCl pH 7.5, 0.1 mM EGTA, 1 mg/ml BSA, 0.1% (v/v) 2-mercaptoethanol and assayed in 50 mM Tris/HCl pH 7.5, 0.1 mM EGTA, 0.1% (v/v) 2-mercaptoethanol.

Test [2] addresses T2, NEK6 (Homo sapiens, UniProt Q9HC98).
T2 construct: All protein kinases were of human origin and encoded full length proteins, unless indicated otherwise; made in house
The experiment in a line: NEK6 protein kinase assay. The test is classed as biochemical. As to conditions: for remaining activity at 1 µM: 1 μM compound; for remaining activity at 10 µM: 10 μM compound; for residual kinase activity NEK6: 1 μm compound.
Text: as §1, §2, §3, §4

The target in test [3] is T3, PRAK (Homo sapiens, UniProt Q8IW41).
T3 construct: All protein kinases were of human origin and encoded full length proteins, unless indicated otherwise; made in house
T3 sequence (Q8IW41 1-473): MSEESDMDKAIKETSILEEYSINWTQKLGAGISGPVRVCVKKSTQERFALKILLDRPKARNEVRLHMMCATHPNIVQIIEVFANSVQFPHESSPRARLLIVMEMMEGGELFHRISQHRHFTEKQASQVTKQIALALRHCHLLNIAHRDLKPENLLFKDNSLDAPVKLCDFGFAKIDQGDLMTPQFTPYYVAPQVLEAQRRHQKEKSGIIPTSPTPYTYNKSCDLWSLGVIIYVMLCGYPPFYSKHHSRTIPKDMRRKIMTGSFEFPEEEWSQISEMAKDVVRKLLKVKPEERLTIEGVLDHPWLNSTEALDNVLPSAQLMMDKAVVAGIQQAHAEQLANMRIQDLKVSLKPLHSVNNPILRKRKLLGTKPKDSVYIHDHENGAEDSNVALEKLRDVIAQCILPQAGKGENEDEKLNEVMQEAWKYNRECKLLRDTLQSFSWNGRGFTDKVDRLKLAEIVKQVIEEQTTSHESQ
The test can be described thus: PRAK protein kinase assay. The class given is biochemical. The settings on record: for remaining activity at 1 µM: 1 μM compound; for remaining activity at 10 µM: 10 μM compound; for residual kinase activity PRAK: 1 μm compound.
Text: as §1, §2, §3, §4

Test [4] concerns IRR. The test can be described thus: IRR protein kinase assay. The test is classed as biochemical, human. As to conditions: for residual kinase activity: IRR.
Text: as §1, §2, §3, §4

The target in test [5] is T4, DYRK3 (Homo sapiens, UniProt O43781).
T4 construct: All protein kinases were of human origin and encoded full length proteins, unless indicated otherwise; made in house
T4 sequence (O43781 1-588): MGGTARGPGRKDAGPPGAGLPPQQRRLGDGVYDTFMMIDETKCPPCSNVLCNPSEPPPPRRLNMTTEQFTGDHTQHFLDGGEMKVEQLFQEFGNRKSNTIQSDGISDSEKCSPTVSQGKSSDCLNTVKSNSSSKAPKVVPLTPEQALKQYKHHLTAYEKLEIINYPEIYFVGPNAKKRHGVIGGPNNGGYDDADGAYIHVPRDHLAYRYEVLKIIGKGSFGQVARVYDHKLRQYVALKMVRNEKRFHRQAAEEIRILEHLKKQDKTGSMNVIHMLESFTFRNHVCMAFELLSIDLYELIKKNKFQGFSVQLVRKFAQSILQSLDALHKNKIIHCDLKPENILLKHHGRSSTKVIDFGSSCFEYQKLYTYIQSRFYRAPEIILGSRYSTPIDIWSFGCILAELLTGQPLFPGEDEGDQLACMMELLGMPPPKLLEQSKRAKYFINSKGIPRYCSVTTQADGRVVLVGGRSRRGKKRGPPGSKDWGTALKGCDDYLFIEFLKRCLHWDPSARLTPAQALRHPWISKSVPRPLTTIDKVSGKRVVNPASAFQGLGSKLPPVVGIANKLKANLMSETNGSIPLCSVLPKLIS
The experiment in a line: DYRK3 protein kinase assay. The test is classed as biochemical. As to conditions: for remaining activity at 1 µM: 1 μM compound; for remaining activity at 10 µM: 10 μM compound; for residual kinase activity DYRK3: 1 μm compound.
Text: as §1, §2, §3, §4

Setting [6] is: PKCa, read-out: residual kinase activity.
Setting [7] is: NEK6, read-out: residual kinase activity.
The mark [8] stands for this setting: PRAK, read-out: residual kinase activity.
[9] abbreviates: DYRK3, read-out: residual kinase activity.
[10] abbreviates: read-out: residual kinase activity PKCa.
The mark [11] stands for this setting: read-out: residual kinase activity NEK6.
[12] abbreviates: read-out: residual kinase activity PRAK.
Setting [13] is: read-out: residual kinase activity DYRK3.

T2 sequence (Q9HC98 whole entry): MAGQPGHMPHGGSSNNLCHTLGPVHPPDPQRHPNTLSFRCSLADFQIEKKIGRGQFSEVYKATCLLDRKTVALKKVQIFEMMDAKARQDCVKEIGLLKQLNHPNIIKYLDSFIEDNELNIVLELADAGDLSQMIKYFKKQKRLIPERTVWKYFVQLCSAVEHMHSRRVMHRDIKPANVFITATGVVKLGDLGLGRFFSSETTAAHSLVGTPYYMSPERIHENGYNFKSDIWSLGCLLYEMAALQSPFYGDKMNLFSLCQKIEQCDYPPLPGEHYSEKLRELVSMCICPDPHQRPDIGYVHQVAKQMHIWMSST

As for `O=C(NCCCNc1nc(Nc2cccnc2)ncc1C1CC1)c1cccs1` [Example 50, Thiophene-2-carboxylic acid {3-[5-cyclopropyl-2-(pyridin-3-ylamino)-pyrimidin-4-ylamino]-propyl}-amide], the remaining activity at 1 µM came out at 85% in test [1] (setting [6]), 107% in test [2] (setting [7]), 64% in test [3] (setting [8]) and 59% in test [5] (setting [9]). The remaining activity at 10 µM came to 70% in test [1] (setting [6]), 103% in test [2] (setting [7]), 64% in test [3] (setting [8]) and 22% in test [5] (setting [9]). The residual kinase activity worked out at 39% in test [4] (1 μM compound) and 17% in test [4] (10 μM compound).

In the case of `O=C(NCCCNc1nc(Nc2cccc(F)c2)ncc1Br)C1CCC1` [Compound A, cyclobutanecarboxylic acid {3-[5-bromo-2-(3-fluoro-phenylamino)-pyrimidin-4-ylamino]-propyl}-amide, reference compound], the remaining activity at 10 µM in test [1] (setting [10]) is 49%; in test [2] (setting [11]), 93%; in test [3] (setting [12]) it was 31%; in test [5] (setting [13]) it was 7%. Also, the “residual kinase activity PKCa” value in test [1] is 94%. In addition, in test [2], the “residual kinase activity NEK6” value turned out to be 88%. Besides, the “residual kinase activity PRAK” value in test [3] was 65%. The “residual kinase activity IRR” value came to 15% in test [4] (10 μM compound) and 32% in test [4] (1 μm compound). Moreover, in test [5], the “residual kinase activity DYRK3” value amounted to 33%.

As for `O=C(NCCCNc1nc(Nc2cccc(F)c2)ncc1C1CC1)C1CCC1` [Example 23, Cyclobutanecarboxylic acid {3-[5-cyclopropyl-2-(3-fluoro-phenylamino)-pyrimidin-4-ylamino]-propyl}-amide], the remaining activity at 10 µM in test [1] (setting [10]) was 87%; in test [1] (setting [6]), 87%; in test [2] (setting [11]) it was 83%; in test [2] (setting [7]), 83%; in test [3] (setting [12]) it was 96%; in test [3] (setting [8]), 96%. In addition, the remaining activity at 10 µM in test [5] (setting [13]) and in test [5] (setting [9]) was 36% in each case. Besides, the “residual kinase activity PKCa” value in test [1] turned out to be 81%. In addition, the remaining activity at 1 µM in test [1] (setting [6]) was found to be 81%; in test [2] (setting [7]), 88%; in test [3] (setting [8]), 93%; in test [5] (setting [9]) it was 78%. Also, the “residual kinase activity NEK6” value in test [2] was 88%. Also, the “residual kinase activity PRAK” value in test [3] is 93%. The “residual kinase activity IRR” value is given as 17% in test [4] (10 μM compound) and 44% in test [4] (1 μm compound). The residual kinase activity in test [4] (1 μM compound) is 44%; in test [4] (10 μM compound), 17%. Also, the “residual kinase activity DYRK3” value in test [5] is 78%.

Turning to `O=C(NCCCNc1nc(Nc2cccc(N3CCCC3=O)c2)ncc1C1CC1)c1cccs1` [Example 47, Thiophene-2-carboxylic acid (3-{5-cyclopropyl-2-[3-(2-oxo-pyrrolidin-1-yl)-phenylamino]-pyrimidin-4-ylamino}-propyl)-amide. Hydrochloride salt], the remaining activity at 1 µM in test [1] (setting [6]) was determined as 83%; in test [2] (setting [7]), 65%; in test [3] (setting [8]), 70%; in test [5] (setting [9]), 73%. The remaining activity at 10 µM came out at 69% in test [1] (setting [6]), 65% in test [2] (setting [7]), 76% in test [3] (setting [8]) and 33% in test [5] (setting [9]). Moreover, the values for the residual kinase activity in test [4] (1 μM compound) and in test [4] (10 μM compound) were 64% and 25%, respectively.
